According to ChEMBL document CHEMBL1201862, “PubChem BioAssay data set” (2004):
“And” between values parts separate entries of the source, which are not always exact repeats. Equal entries are not always repeated. The source made the active and inactive calls.

Columns and labels:
[1] = biological target: T1, Carboxy-terminal domain RNA polymerase II polypeptide A small phosphatase 1 (Homo sapiens, UniProt Q9GZU7); test: inhibitors of CTDSP1, concentration-response testing, biochemical assay, absorbance-based, actives from ultra-high-throughput screening (AID 540297); assay type: functional
T1 sequence (Q9GZU7 whole entry): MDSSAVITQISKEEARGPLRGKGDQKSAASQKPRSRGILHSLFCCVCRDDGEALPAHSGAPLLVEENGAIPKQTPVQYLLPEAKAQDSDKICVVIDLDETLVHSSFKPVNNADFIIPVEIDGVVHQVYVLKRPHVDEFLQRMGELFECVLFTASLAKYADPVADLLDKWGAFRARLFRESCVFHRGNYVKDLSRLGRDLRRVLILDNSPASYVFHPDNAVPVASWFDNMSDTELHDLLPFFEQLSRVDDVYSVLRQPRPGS

[2] = biological target: T2, Cytochrome P450 3A4 (Homo sapiens, UniProt P08684); conditions: Potency
T2 sequence (P08684 whole entry): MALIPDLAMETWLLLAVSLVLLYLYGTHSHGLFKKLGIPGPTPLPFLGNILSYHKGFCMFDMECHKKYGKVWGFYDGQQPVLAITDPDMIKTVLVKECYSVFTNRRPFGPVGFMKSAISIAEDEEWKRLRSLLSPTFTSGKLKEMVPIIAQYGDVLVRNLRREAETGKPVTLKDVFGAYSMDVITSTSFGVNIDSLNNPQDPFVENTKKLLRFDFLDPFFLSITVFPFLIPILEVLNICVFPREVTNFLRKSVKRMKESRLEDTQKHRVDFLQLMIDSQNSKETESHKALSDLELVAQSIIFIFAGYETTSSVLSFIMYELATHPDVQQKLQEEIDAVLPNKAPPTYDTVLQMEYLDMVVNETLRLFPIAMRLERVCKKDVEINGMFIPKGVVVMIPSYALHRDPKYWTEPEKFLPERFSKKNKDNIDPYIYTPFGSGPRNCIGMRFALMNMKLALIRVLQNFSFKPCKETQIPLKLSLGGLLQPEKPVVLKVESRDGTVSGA

[3] = biological target: T3, Ubiquitin-conjugating enzyme E2 N (Homo sapiens, UniProt P61088); assay type: functional;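 also: Dose-response confirmation in a TR-FRET assay detecting UBC13-driven polyubiquitin chain formation, inhibition measured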
T3 sequence (P61088 whole entry): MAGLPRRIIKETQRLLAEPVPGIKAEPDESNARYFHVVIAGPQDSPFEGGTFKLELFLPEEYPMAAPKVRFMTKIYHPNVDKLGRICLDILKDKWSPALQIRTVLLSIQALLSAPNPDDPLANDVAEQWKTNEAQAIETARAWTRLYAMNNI

[4] = inhibitors of firefly luciferase expression or activity, dose response, H4 neuroglioma cells, luminescence (AID 1990); assay type: functional, cell-based
[5] = inhibitors of SNCA 5'UTR-driven reporter translation, confirmation, H4 neuroglioma cells, luminescence (AID 1988); assay type: functional, cell-based
[6] = Luminescence Cell-Based Dose Response HTS to Identify Inhibitors of 5'UTR Stem-Loop Driven Prion Protein mRNA Translation in H4 Neuroglioblastoma Cells. [Related pubchem assays: 1827 (Project Summary), 1813 (Primary HTS)]; assay type: functional
[7] = biological target: T4, Calpain-2 catalytic subunit (Sus scrofa, UniProt P43367); test: pig calpain II inhibitor potency, dose response, biochemical, fluorogenic peptide substrate (AID 1420); assay type: functional
T4 sequence (P43367 whole entry): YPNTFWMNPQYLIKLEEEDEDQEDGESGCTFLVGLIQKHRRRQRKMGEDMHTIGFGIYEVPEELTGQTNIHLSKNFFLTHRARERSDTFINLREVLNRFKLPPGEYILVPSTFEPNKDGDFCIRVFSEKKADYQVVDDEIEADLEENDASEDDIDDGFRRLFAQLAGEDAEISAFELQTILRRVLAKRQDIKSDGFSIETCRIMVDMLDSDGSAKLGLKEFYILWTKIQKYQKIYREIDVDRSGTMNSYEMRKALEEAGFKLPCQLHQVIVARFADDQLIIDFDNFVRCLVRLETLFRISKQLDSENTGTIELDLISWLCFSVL

[8] = THP-1 cell cytotoxicity, dose response, cytotoxicity control for Vif-APOBEC3G degradation inhibitor project, THP-1 cells (AID 1117359); assay type: functional; conditions: Human immunodeficiency virus 1, THP-1
[9] = inhibitors of intracellular T. cruzi replication, confirmation, NIH3T3 host cells, beta-gal luminescence (AID 2044); assay type: functional, cell-based;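 also: intracellular parasites grown in NIH/3T3 mouse fibroblasts as host cells; luminescent beta-galactosidase reporter signal from transgenic T. cruzi replicating inside host cells; inhibitors lower the luminescence signal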
[10] = biological target: T2, Cytochrome P450 3A4
[11] = cytotoxicity toward NIH3T3 fibroblasts, dose response, counter-screen, cell-based, ATP luminescence, mouse fibroblasts (AID 2010); assay type: functional;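 also: cells exposed to compound for about 90 hours before reading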
[12] = biological target: T5, High affinity choline transporter 1 (Homo sapiens, UniProt Q9GZV3); test: CHT inhibitors, dose response, cell-based, 5-point CRC, membrane potential dye (AID 504840); assay type: functional
T5 sequence (Q9GZV3 whole entry): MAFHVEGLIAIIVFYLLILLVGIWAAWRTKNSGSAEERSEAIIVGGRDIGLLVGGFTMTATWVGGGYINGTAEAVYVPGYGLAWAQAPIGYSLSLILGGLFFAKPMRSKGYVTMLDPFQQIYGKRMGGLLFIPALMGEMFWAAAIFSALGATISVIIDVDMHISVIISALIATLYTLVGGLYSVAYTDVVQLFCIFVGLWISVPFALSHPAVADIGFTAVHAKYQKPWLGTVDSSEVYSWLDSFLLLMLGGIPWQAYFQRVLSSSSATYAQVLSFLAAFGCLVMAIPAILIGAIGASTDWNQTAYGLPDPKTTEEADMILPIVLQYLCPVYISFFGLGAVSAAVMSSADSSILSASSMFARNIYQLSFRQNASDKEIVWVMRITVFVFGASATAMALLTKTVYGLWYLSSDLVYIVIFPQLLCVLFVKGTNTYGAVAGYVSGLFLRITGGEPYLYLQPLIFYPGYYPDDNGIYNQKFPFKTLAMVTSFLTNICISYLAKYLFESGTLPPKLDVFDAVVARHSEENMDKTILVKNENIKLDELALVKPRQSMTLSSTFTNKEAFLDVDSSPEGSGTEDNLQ

[13] = biological target: Heat shock protein HSP 90-alpha (Homo sapiens, UniProt P07900); assay type: functional, organism-based
[14] = biological target: T6, Corticotropin-releasing factor receptor 2/Corticotropin-releasing factor-binding protein (Homo sapiens, UniProt P24387+Q13324); test: activators of CRF receptor 2 with binding protein – uHTS hits, confirmation (AID 602473); assay type: functional; conditions: read-out: EC50_Mean
T6 sequence (Q13324 whole entry): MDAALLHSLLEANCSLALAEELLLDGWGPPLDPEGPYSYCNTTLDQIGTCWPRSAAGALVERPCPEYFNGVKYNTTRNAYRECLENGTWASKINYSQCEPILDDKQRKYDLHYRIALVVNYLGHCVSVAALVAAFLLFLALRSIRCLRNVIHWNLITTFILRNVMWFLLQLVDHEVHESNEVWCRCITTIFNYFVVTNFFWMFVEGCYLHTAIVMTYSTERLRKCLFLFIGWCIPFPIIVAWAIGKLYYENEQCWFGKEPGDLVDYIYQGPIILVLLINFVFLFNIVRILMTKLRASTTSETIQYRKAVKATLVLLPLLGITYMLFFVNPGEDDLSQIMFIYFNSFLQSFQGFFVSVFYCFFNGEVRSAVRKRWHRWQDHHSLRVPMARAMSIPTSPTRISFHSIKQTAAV
T6 sequence (P24387 whole entry): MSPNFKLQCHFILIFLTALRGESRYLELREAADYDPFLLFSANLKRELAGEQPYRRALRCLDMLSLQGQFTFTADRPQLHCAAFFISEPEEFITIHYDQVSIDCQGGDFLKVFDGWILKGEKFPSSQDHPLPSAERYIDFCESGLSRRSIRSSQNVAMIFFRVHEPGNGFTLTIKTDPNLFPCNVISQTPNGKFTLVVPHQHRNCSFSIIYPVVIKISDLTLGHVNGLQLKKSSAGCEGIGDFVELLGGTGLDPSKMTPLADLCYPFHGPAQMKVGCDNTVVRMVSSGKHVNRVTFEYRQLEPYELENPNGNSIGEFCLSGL

[15] = P. falciparum Dd2 growth inhibitors, dose response, SYBR Green, cherry-picked samples (AID 1159567); assay type: functional, cell-based
[16] = tested on: INS1; test: beta cell apoptosis inhibitors, cytokine rescue, dose response, luminescence, retest (AID 449756); assay type: functional, cell-based; conditions: Rattus norvegicus;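 also: cell death triggered by IL-1 beta plus TNF-alpha plus IFN-gamma mixture; protective hits raise ATP signal compared with cytokine alone wells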
[17] = Luminescence Cell-Based Dose Retest to Confirm Inhibitors of Cancer Stem Cells. [Related pubchem assays (depositor defined):AID2717, AID2721]; assay type: functional; conditions: Homo sapiens
[18] = microbe, parasite or virus in culture; assay type: functional; conditions: Mycobacterium tuberculosis
[19] = Shn3 3'UTR reporter inhibitors, dose response, cell-based, Clone20 osteoblasts, firefly luciferase, cherry-picked (AID 624132); assay type: functional;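 also: firefly luciferase luminescence from reporter carrying the Shn3 3'UTR in osteoblasts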
[20] = HepG2 cell cytotoxicity, dose response, cytotoxicity control for Shn3 inhibitor project, CellTiter-Glo, cherry-picked (AID 624134); assay type: functional, cell-based

## CCN(CC)CCNC(C(=O)Nc1cc(C(F)(F)F)ccc1Cl)c1ccccc1 (stereo unspecified)
[1]
  IC50: 9.32 µM (active)

## O=C(c1nc2ccc(Cl)cn2c1CN1CCCC1)N1CCc2ccccc2C1
[1]
  IC50: 17.5 µM (active)

## COc1ccc(-c2coc3ccc(OC4OC(COC(C)=O)C(OC(C)=O)C(OC(C)=O)C4OC(C)=O)cc3c2=O)cc1 (stereo unspecified)
[2]
  AC50: 1.58 µM (inconclusive)

## COC(=O)C1=C(C)N(Cc2ccccc2)c2c(C(=O)OC)c(C(=O)OC)c(C(=O)OC)c(=O)n2C1c1ccccc1 (stereo unspecified)
[2]
  AC50: 5.01 µM (inconclusive) and 3.98 µM (inconclusive)

## CCCN(CCC)CCNC(=O)c1cc2c(=O)n(CC)c3ccccc3c2s1
[3]
  IC50: > 20 µM (inactive)

## O=C1COc2ccc(C(=O)COC(=O)/C=C/c3ccco3)cc2N1
[1]
  IC50: 13.4 µM (active)

## Cn1c(NCc2ccccc2)nc2c1c(=O)n(Cc1ccc(Br)cc1)c(=O)n2C
[4]
  EC50: 13.5 µM (active)
[5]
  EC50: 12.4 µM (active)
[6]
  EC50: 18 µM (active)
[7]
  IC50: 5.48 µM (active)

## Cc1nc(Nc2ccccc2)c2nc(-c3ccccc3)n(CCCN3CCCCC3C)c2n1 (stereo unspecified)
[2]
  AC50: 12.6 µM (inconclusive)

## CCc1ccc(C(=O)Nc2cccnc2Oc2ccc(Cl)cc2)cc1
[8]
  CC50: 18.4 µM (active)

## O=C1CC[C@@]23/C=C/C(=O)NCCCCNCCCNC(=O)/C=C/c4ccc(c2c4)OC3C1 (stereo partly specified)
[2]
  AC50: 39.8 µM (inconclusive)

## O=NN(O)c1ccccc1
[2]
  AC50: 31.6 µM (inconclusive)

## CCOC(=O)c1c(CN2CCCCC2)oc2ccc(O)cc12
[3]
  IC50: > 20 µM (inactive)

## N#Cc1c(N2CCN(C(=O)c3ccccc3Cl)CC2)nc(-c2ccccc2)c2c1CCCC2
[9]
  EC50: 2.36 µM (active)
[10]
  AC50: inconclusive
[11]
  EC50: > 60 µM (not active)

## Cc1cc2nc(C)c(Cl)c(O)n2n1
[12]
  IC50: 13.2 µM (active)

## O=C(COc1ccc([N+](=O)[O-])cc1)Nc1ccc(C(=O)Nc2ccccc2C(=O)O)cc1
[1]
  IC50: 12.3 µM (active)

## COc1ccc(OCC(=O)OCCN(C)C)cc1
[12]
  IC50: 14.5 µM (active)

## Cc1cccc(OCCCC(=O)NNC(=O)c2ccccn2)c1
[3]
  IC50: > 20 µM (inactive)

## Cc1ccc2nsnc2c1S(=O)(=O)N1CCN(CCc2ccccc2)CC1
[12]
  IC50: 11.8 µM (active)

## O=C1C2C3C=CC(CNS(=O)(=O)c4ccccc4)(O3)C2C(=O)N1c1ccc(Cl)cc1 (stereo unspecified)
[13]
  AC50: 7.09 µM (active)

## CCCCNc1nc(C)nc2c1nc(C)n2CCC
[2]
  AC50: 31.6 µM (inconclusive)

## O=C(Nc1ccc(Oc2ccccc2)cc1)C1CCCN(c2ncccn2)C1 (stereo unspecified)
[14]
  EC50: > 53 µM (inactive)
[7]
  IC50: 14.7 µM (not active)

## CC(=O)OC1CC(OC(C)=O)[C@]2(C)C(CC(=O)[C@]3(C)C2CC[C@@]2(C)C(C(=O)O)OC(=O)C4OC423)C1(C)C (stereo partly specified)
[2]
  AC50: 39.8 µM (inconclusive)

## COC(=O)C1(C)C=CC2(CCCCC2)N1C(C)=O (stereo unspecified)
[2]
  AC50: 15.8 µM (inconclusive)

## COc1ccc(-c2cc(C(=O)N(C)CC(=O)Nc3ccccc3Br)c3ccccc3n2)cc1OC
[8]
  CC50: > 40 µM (active)

## O=C(CCCCCCCCC(=O)N/N=C/c1ccco1)N/N=C/c1ccco1
[1]
  IC50: 11.5 µM (active)

## CC(SCc1ccccc1)C(=O)N/N=C/c1ccc(OCC(=O)NCc2ccco2)cc1 (stereo unspecified)
[12]
  IC50: 2 µM (active)

## CCCC(=O)Nc1ccc2c(c1)OC[C@H](C)N(Cc1ccc(-c3ccccn3)cc1)C[C@H](C)[C@H](OC)CN(C)C2=O
[15]
  AC50: 4.66 µM (active)

## COc1ccc2c3c([nH]c2c1)[C@@H](CO)N(Cc1cc(F)ccc1F)CC31CCN(C(=O)C2CCC2)CC1
[15]
  AC50: 3.77 µM (active)

## COc1ccc(C#Cc2ccc([C@H]3[C@H]4CN(C(=O)Nc5ccccc5)CCCCN4[C@H]3CO)cc2)cc1
[15]
  AC50: 4.8 µM (active)

## COc1ccc2c3c([nH]c2c1)[C@H](CO)N(Cc1ccccc1Cl)CC31CCN(C(C)=O)CC1
[15]
  AC50: 2.8 µM (active)

## CCCNC[C@H]1[C@@H](c2ccc(C3=CCCCC3)cc2)[C@@H](CO)N1C(=O)C1CCC1
[15]
  AC50: 4.2 µM (active)

## CCCCCCN(C(=O)CCCCCN1C(=O)NC(c2ccc(C(C)(C)C)cc2)C(C(=O)OCc2ccccc2)=C1C)C(C(=O)NCCCC)c1ccc(OCC(=O)OC)c(C(=O)OC)c1 (stereo unspecified)
[8]
  CC50: 13.2 µM (active)

## CC(=O)OCC1=C(C(=O)O)N2C(=O)[C@@H](NC(=O)Cc3cccs3)[C@H]2SC1 [CEPHALOTHIN]
[1]
  IC50: 2.79 µM (active)

## Clc1ccc(C(Cn2ccnc2)OCc2csc3c(Cl)cccc23)c(Cl)c1 (stereo unspecified) [SERTACONAZOLE NITRATE]
[13]
  AC50: 0.233 µM (active)
[16]
  AC50: 10 µM (active)
[17]
  AC50: 1.85 µM (active)
[18]
  CC50: 24.4 µM (active)

## CC(C)N1CCN(c2ccc(OCC3COC(Cn4cncn4)(c4ccc(Cl)cc4Cl)O3)cc2)CC1 (stereo unspecified) [TERCONAZOLE]
[13]
  AC50: 2.19 µM (active)
[19]
  AC50: 52.1 µM (active)
[20]
  AC50: 21.2 µM (active)
